We go through two molecules from US20240415802A1, “GENISTEIN FOR ASTHMA TREATMENT” (University of South Florida, priority 2022, published 2024).

Assay [1] has as its system PAI-1. The settings on record: normal bronchial epithelial cells; cited from earlier work.
Assay [2] relates to PAI-1 4G promoter. Description: PAI-1 promoter luciferase reporter assay in stimulated LAD2 mast cells. The assay is classed as cell-based, human. The settings on record: cells transfected with 4G vector, genistein pretreatment 5 μM 1 hour. How it is done:
LAD2 cells, a human mast cell line, were cultured and transfected with luciferase plasmids containing a 4G, 5G or pGL3-basic vector to determine the promotor activity. These LAD2 cells were stimulated overnight with IgE (100 ng/mL) and streptavidin (500 ng/mL) (IgE+streptavidin) for IgE-receptor cross-linking or Ionomycin (100 ng/mL) and phorbol myristate acetate (PMA, 10 ng/ml) (Ionomycin+PMA) with or without genistein pretreatment (5 μM) for 1 hour. […] LAD2 cells transfected with the 5G vector didn't increase promoter activity by IgE+Streptavidin/Ionomycin+PMA stimulation compared to no treatment (FIGS. 2C and 2D).
Human mast cells (LAD2) were grown in complete serum-free growth media (Stem pro-34 with the supplement, penicillin/streptomycin, L-glutamine and SCF recombinant, Invitrogen, Waltham, MA, USA). Cells were cultured in cytokine-free media (without SCF recombinant) at density of ˜0.5×10^6 per mL for a day prior to transfection and stimulation. Cells were transfected with luciferase plasmids containing different Pai-1 polymorphisms, 4G4G, 5G5G, pGL3-luciferase reporter basic vector (empty backbone, Promega, Madison, WI) using Lipofectamine 3000 transfection reagent (Invitrogen, Waltham, MA, USA). […] The firefly luciferase activity and Renilla luciferase activity were measured sequentially.
(In a reporter assay the amount or activity of a reporter protein is the signal.)

The subject of assay [3] is PAI-1 4G promoter. Put plainly: PAI-1 promoter luciferase reporter assay in TGF-β stimulated NHBE cells. The assay is classed as cell-based, human. To be noted: NHBE cells transfected with 4G vector; TGF-β 2 ng/mL 6 hours; genistein pretreatment 5 μM 1 hour; p=0.007. How it is done:
Normal human bronchial epithelial cells (NHBE) and a human mast cell line, LAD2, were cultured and transfected with luciferase plasmids containing a 4G, 5G or pGL3-basic vector (empty backbone). […] (FIG. 1B)
Normal human bronchial epithelial cells (NHBE) were cultured in 5% CO2 chamber at 37° C. with epithelial cell growth basal media (BEGM, Lonza). Cells were seeded on type 1 collagen-coated plate. Prior to transfection and stimulation, NHBEs were cultured without hydrocortisone (HC) for a day or two, at ˜80% confluency in 12 wells. Passage 2 or 3 was used for the experiment. Cells were transfected with luciferase plasmids containing different Pai-1 polymorphisms, 4G4G, 5G5G, pGL3-luciferase reporter basic vector (empty backbone, Promega, Madison, WI, USA) using Lipofectamine 3000 transfection reagent (Invitrogen, Waltham, MA, USA). Cells were stimulated for 6 hours with TGF-β (2 ng/mL, R&D Systems, Minneapolis, MN, USA) with and without genistein (Sigma-Aldrich, St. Louis, MO, USA) pretreatment (5 μM) for 1 hour. Cells were harvested and lysed in 1×PLB reagent prior to performing Dual-luciferase report assay (DLR assay, Promega, Madison, WI, USA). The firefly luciferase activity and Renilla luciferase activity were measured sequentially.

Assay [4] addresses T1, PAI-1 (Mus musculus, UniProt P22777).
T1 sequence (P22777 23-402): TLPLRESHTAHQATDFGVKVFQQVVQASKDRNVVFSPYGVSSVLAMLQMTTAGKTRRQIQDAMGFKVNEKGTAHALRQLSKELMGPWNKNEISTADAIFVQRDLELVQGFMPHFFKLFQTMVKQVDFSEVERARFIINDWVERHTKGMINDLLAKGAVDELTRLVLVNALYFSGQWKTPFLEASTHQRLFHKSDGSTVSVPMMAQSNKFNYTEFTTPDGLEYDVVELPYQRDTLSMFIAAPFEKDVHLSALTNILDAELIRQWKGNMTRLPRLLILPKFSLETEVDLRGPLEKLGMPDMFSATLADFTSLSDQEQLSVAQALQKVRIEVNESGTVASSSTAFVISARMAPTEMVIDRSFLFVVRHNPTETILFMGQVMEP
The settings on record: OVA challenge model of allergic asthma; cited from earlier work.

In the case of `O=c1c(-c2ccc(O)cc2)coc2cc(O)cc(O)c12` [genistein, 5,7-dihydroxy-3-(4-hydroxyphenyl)-chromen-4-onc], the “TGF-β1-induced PAI-1 production” value in the assay on PAI-1 [1] is “downregulation”. Besides, the “PAI-1 4G promoter activity increased by IgE+Streptavidin stimulation” value in the assay on PAI-1 4G promoter [2] (IgE 100 ng/mL + streptavidin 500 ng/mL, p=0.05) was “blocked by genistein pretreatment significantly”. Further, in the assay with PAI-1 4G promoter [2] (Ionomycin 100 ng/mL + PMA 10 ng/ml, p<0.05), the “PAI-1 4G promoter activity increased by Ionomycin+PMA stimulation” value is recorded as “blocked by genistein pretreatment significantly”. Further, in the assay with PAI-1 4G promoter [3], the “PAI-1 4G promoter activity increased by TGF-β1 stimulation” value is “blocked by genistein pretreatment significantly”.

On to `O=C(O)C(=O)c1cn(Cc2ccccc2)c2ccc(-c3ccc(OC(F)(F)F)cc3)cc12` [Tiplaxtinin], for which, on PAI-1 [4], the “Airway hyperresponsiveness (AHR)” value is “reduced” and the “Degree of eosinophilic airway inflammation” value was “reduced”.
